Measured values published in BindingDB's records for doi:10.1111/cbdd.12686 (Jamia Hamdard, 2016).
pIC50: −log10 of the molar value.

Target: Xanthine dehydrogenase/oxidase (Bos taurus, UniProt P80457)
Experiment: Xanthine Oxidase (XO) Assay
Conditions: pH 7.4

Sequence of Xanthine dehydrogenase/oxidase (P80457 whole entry): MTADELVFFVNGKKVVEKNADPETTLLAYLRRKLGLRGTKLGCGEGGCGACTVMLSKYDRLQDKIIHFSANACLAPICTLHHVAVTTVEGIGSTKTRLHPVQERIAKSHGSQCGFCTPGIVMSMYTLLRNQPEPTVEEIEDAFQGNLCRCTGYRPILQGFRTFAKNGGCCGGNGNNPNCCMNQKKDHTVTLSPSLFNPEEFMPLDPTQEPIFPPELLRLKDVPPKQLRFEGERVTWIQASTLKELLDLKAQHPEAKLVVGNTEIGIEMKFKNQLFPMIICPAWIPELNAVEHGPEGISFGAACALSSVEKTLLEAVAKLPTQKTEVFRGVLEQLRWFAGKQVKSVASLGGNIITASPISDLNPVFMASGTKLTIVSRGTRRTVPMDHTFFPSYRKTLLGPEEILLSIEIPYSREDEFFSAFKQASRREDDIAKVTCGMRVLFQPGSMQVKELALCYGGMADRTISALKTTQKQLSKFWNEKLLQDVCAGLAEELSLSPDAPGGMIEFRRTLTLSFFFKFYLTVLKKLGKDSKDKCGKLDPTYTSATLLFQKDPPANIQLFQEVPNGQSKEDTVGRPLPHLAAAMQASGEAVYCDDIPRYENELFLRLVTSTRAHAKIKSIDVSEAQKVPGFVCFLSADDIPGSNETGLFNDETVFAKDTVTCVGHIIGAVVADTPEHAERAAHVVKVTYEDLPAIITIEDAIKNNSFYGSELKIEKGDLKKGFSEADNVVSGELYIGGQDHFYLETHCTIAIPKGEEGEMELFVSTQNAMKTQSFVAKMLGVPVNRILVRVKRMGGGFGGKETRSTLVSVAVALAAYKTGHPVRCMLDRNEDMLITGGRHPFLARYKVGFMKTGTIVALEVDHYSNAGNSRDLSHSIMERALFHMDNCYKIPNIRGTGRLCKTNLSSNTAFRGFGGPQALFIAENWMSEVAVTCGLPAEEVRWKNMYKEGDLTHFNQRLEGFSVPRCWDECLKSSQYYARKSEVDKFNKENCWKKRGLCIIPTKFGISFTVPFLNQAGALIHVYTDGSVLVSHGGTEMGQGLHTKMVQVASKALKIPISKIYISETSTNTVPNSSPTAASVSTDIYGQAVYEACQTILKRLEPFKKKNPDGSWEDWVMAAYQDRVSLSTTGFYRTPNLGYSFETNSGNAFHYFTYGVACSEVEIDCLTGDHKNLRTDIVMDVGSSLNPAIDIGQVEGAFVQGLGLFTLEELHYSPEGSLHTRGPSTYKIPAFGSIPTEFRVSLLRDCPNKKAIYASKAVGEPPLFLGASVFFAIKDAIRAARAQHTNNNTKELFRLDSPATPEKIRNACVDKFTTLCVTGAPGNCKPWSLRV

pIC50 | Structure (SMILES)
5.09 | Cc1nc(NCc2ccc(Cl)cc2Cl)sc1C(=O)O [2-{[(2,4-dichlorophenyl)methyl]amino}-4-methyl-1,3-thiazole-5-carboxylic acid (5l)]
< 4.00 | Cc1nc(NCc2ccccc2Br)sc1C(=O)O [2-{[(2-bromophenyl)methyl]amino}-4-methyl-1,3-thiazole-5-carboxylic acid (5i)]
5.44 | Cc1ccccc1CNc1nc(C)c(C(=O)O)s1 [4-methyl-2-{[(2-methylphenyl)methyl]amino}-1,3-thiazole-5-carboxylic acid (5k)]
4.22 | Cc1nc(NCc2ccc(O)c(O)c2)sc1C(=O)O [2-{[(3,4-dihydroxyphenyl)methyl]amino}-4-methyl-1,3-thiazole-5-carboxylic acid (5p)]
5.00 | Cc1nc(NCc2ccccc2Cl)sc1C(=O)O [2-{[(2-chlorophenyl)methyl]amino}-4-methyl-1,3-thiazole-5-carboxylic acid (5j)]
4.36 | Cc1nc(NCc2ccc(Br)cc2)sc1C(=O)O [2-{[(4-bromophenyl)methyl]amino}-4-methyl-1,3-thiazole-5-carboxylic acid (5d)]
4.52 | Cc1nc(NCc2ccc(F)cc2)sc1C(=O)O [2-{[(4-fluorophenyl)methyl]amino}-4-methyl-1,3-thiazole-5-carboxylic acid (5c)]
< 4.00 | Cc1nc(NCc2ccc(Cl)cc2)sc1C(=O)O [2-{[(4-chlorophenyl)methyl]amino}-4-methyl-1,3-thiazole-5-carboxylic acid (5b)]
4.67 | Cc1nc(NCc2ccc(O)cc2)sc1C(=O)O [2-{[(4-hydroxyphenyl)methyl]amino}-4-methyl-1,3-thiazole-5-carboxylic acid (5f)]
4.01 | Cc1nc(NCc2ccccc2)sc1C(=O)O [2-(Benzylamino)-4-methyl-1,3-thiazole-5-carboxylic acid (5a)]
< 4.00 | Cc1nc(NCc2ccccc2O)sc1C(=O)O [2-{[(2-hydroxyphenyl)methyl]amino}-4-methyl-1,3-thiazole-5-carboxylic acid (5m)]
4.83 | COc1ccccc1CNc1nc(C)c(C(=O)O)s1 [2-{[(2-methoxyphenyl)methyl]amino}-4-methyl-1,3-thiazole-5-carboxylic acid (5n)]
< 4.00 | COc1ccc(CNc2nc(C)c(C(=O)O)s2)cc1 [2-{[(4-methoxyphenyl)methyl]amino}-4-methyl-1,3-thiazole-5-carboxylic acid (5g)]
< 4.00 | Cc1ccc(CNc2nc(C)c(C(=O)O)s2)cc1 [4-methyl-2-{[(4-methylphenyl)methyl]amino}-1,3-thiazole-5-carboxylic acid (5e)]
